In paper doi:10.1101/2025.01.23.634444v1, “The histidine kinase VraS orchestrates the cell-wall stress response in Staphylococcus aureus via its direct interaction with glycopeptides and β-lactams” (biorxiv, 2025) one finds STD and IC50 data, which are given here for two compounds.

The IC50 is the point on the concentration scale where inhibition reaches its midpoint. Read a high IC50 as a need for much substance.

Assay [1] deals with T1, VraS (VraS-H6x) (Staphylococcus aureus, UniProt A0A0H2XJC3). Put plainly: saturation transfer difference NMR. In kind it is binding. Details: full-length, C-terminal His6 tag kept, codon-optimised synthetic gene, pET24a(+), expressed in E. coli BL21 Star (DE3) membranes, purified in DDM, reconstituted in liposomes; 347 residues, 40,867 Da tagged; dimer in DDM. The following applies: 20 µM VraS, 400 µM ampicillin, sodium phosphate pH 7.4, 280 mM NaCl, 6 mM KCl, 0.01% DDM, 10% D2O.

Assay [2] concerns the target T1, VraS (VraS-H6x). Put plainly: biochemical.

T1 sequence (A0A0H2XJC3 entry or part of it): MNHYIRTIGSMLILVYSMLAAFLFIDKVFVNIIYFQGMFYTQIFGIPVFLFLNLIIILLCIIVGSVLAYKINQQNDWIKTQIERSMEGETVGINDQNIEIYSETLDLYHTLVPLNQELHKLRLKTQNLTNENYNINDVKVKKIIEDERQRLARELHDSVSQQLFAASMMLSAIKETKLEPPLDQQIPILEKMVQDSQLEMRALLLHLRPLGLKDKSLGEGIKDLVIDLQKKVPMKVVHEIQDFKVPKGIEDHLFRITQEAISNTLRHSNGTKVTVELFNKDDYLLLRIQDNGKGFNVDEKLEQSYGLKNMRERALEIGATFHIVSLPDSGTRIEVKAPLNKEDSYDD

For `CC1(C)S[C@@H]2[C@H](NC(=O)[C@H](N)c3ccccc3)C(=O)N2[C@H]1C(=O)O` [ampicillin], the STD result at VraS (VraS-H6x) [1] is recorded as “the difference spectrum demonstrated the interaction of ampicillin with VraS”.

For the compound `CN[C@H](CC(C)C)C(=O)N[C@H]1C(=O)N[C@@H](CC(N)=O)C(=O)N[C@H]2C(=O)N[C@H]3C(=O)N[C@H](C(=O)N[C@H](C(=O)O)c4cc(O)cc(O)c4-c4cc3ccc4O)[C@H](O)c3ccc(c(Cl)c3)Oc3cc2cc(c3O[C@@H]2O[C@H](CO)[C@@H](O)[C@H](O)[C@H]2O[C@H]2C[C@](C)(N)[C@H](O)[C@H](C)O2)Oc2ccc(cc2Cl)[C@H]1O` [vancomycin], at VraS (VraS-H6x) [2], the half-maximal inhibitory concentration (IC50) worked out at 1600 ± 300 µM.
